Data taken from article PMC8370248, “Key Metabolic Enzymes Involved in Remdesivir Activation in Human Lung Cells” (Antimicrobial Agents and Chemotherapy, 2021).
“Also recorded” adds a separate entry of the source. Structures can show the parent of a compound that is named as a salt.

Legend:
CES1c = molecular target: T1, CES1c (Homo sapiens, UniProt P23141); assay: CES1c-catalyzed hydrolysis of RDV and control (substrate disappearance, LC-MS); type: in vitro ADME; details: 1 μM substrate, CES 1.5 mg/ml, pH 7.4, 37°C
T1 construct: purchased Corning Incorporated (Corning, NY); host or cells: baculovirus-infected insect cells (microsomal fraction, Supersomes)
T1 sequence (P23141 18-566 isoform P23141-3 limits assumed): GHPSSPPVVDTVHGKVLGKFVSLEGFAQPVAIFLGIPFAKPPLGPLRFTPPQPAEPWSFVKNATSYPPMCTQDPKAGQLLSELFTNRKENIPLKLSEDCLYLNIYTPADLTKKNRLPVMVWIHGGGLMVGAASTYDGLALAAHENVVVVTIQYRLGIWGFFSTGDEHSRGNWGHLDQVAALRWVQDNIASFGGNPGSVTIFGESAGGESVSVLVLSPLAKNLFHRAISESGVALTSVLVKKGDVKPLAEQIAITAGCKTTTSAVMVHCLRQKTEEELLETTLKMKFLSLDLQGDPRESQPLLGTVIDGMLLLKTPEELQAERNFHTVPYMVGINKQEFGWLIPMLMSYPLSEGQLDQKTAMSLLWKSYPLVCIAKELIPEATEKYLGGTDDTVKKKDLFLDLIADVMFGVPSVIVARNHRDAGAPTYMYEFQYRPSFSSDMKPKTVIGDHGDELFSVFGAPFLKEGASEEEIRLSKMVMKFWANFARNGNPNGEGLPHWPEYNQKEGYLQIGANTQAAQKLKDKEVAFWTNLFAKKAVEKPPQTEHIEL
Description: (§1) The catalytic activity of carboxylesterase 1b (CES1b), carboxylesterase 1c (CES1c), CES2, and CatA toward RDV hydrolysis was measured using protein-enriched subcellular fraction (CES isozymes) or recombinant proteins (CatA). The reaction rates were determined by monitoring the disappearance of RDV using a liquid chromatography-mass spectrometry (LC-MS) method.
(§2) RDV or positive-control substrates (oseltamivir for CES1 or procaine for CES2) were incubated with individual Supersome preparations (final CES concentration, 1.5 mg/ml) in 0.1 M potassium phosphate buffer (pH 7.4) at 37°C. Substrates were added to a final concentration of 1 μM to initiate the reaction. The final incubation volume was 250 μl. Aliquots were removed after incubation for 0, 10, 30, 60, and 120 min. The reactions were stopped by the addition of the quench solution containing the LC-MS internal standard (IS) (labetalol). Following protein precipitation and centrifugation, 150 μl of supernatant was dried down and reconstituted with 250 μl water. All samples were analyzed by an LC-MS, and the analyte/internal standard peak area ratio (PAR) values were used for quantification. Disappearance of RDV or positive-control compounds was monitored over the incubation time period. Three experiments were conducted with two replicates in each experiment, and data are reported as averages from the three experiments.
(§3) In all studies apart from those with CES1 and CatA with enzyme inhibitors, samples (10-μl aliquots) were injected with a Thermo Scientific autosampler. The LC instrumentation consisted of a Thermo Scientific Dionex UltiMate 3000 RS pump, and the LC column was a Waters Acquity UPLC BEH C18 (1.7 μm particle size, 2.1 by 50 mm). Mobile phases A and B were water 99.9% (vol/vol) containing 0.1% (vol/vol) formic acid, and acetonitrile 99.9% (vol/vol) containing 0.1% (vol/vol) formic acid, respectively, pumped at 0.2 ml/minute. Elution was achieved by a series of linear gradients over 2.33 min followed by reequilibration for 2.57 min. The MS instrument was a Thermo Q Exactive Hybrid Quadrupole-Orbitrap operating in positive or negative ionization mode as appropriate. This was calibrated on a weekly basis, and data were processed with GMSU 8.4.66 software by Gubbs Inc. (Alpharetta, GA). Mass tolerance of 5 ppm was used.

CES1b = molecular target: T2, CES1b (Homo sapiens, UniProt P23141); assay: CES1b-catalyzed hydrolysis of RDV and control (substrate disappearance, LC-MS); type: in vitro ADME; details: 1 μM substrate, CES 1.5 mg/ml, pH 7.4, 37°C
T2 construct: purchased Corning Incorporated (Corning, NY); host or cells: baculovirus-infected insect cells (microsomal fraction, Supersomes)
T2 sequence (P23141 18-567): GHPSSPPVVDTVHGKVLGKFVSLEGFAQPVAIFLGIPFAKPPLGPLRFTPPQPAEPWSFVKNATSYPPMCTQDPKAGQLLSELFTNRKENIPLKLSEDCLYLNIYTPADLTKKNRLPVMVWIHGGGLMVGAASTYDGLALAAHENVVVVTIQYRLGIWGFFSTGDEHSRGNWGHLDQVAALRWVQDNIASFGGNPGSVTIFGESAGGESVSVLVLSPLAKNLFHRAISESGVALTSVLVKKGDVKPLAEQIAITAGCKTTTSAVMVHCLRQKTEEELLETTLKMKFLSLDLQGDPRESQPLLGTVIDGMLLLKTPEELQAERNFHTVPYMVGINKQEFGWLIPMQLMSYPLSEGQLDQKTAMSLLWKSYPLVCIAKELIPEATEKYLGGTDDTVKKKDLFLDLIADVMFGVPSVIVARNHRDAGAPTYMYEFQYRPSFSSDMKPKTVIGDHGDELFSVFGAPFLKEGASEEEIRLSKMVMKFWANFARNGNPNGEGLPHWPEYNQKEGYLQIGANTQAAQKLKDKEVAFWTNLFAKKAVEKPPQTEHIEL
Description: as §1, §2, §3

CES2 = molecular target: T3, CES2 (Homo sapiens, UniProt O00748); assay: CES2-catalyzed hydrolysis of RDV and control (substrate disappearance, LC-MS); type: in vitro ADME; details: CES 1.5 mg/ml, pH 7.4, 37°C
T3 construct: purchased Corning Incorporated (Corning, NY); host or cells: baculovirus-infected insect cells (microsomal fraction, Supersomes)
T3 sequence (O00748 27-559): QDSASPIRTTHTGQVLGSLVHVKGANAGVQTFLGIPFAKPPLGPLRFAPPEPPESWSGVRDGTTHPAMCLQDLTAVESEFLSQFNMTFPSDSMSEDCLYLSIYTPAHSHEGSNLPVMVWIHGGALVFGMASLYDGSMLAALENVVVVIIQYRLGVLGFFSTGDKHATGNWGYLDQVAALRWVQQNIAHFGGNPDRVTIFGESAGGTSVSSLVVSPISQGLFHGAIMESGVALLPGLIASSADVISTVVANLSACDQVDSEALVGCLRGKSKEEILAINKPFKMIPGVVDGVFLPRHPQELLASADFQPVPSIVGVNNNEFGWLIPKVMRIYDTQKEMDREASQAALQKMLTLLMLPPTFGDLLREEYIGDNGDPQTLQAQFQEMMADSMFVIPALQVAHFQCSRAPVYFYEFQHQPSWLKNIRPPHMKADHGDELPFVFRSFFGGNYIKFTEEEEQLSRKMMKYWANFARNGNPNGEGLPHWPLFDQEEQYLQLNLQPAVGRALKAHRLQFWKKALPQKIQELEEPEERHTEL
Description: as §1, §2, §3

[1] = Chemical hydrolysis of MetX under acidic conditions mimicking lysosomal lumen; type: physicochemical
Description: P-N bond cleavage of RDV MetX was evaluated under acidic pH, mimicking intracellular lysosomal conditions.
To test the chemical stability of RDV MetX under acidic conditions (found within the lysosomal lumen) or neutral conditions (e.g., found in the cytosol of cells), 1 μM compound was incubated in a 250-μl reaction mixture consisting of 100 mM sodium acetate (pH 4.5) or 100 mM HEPES (pH 7.5). […] For reactions carried out at pH 4.5, the pH of the reaction aliquots was raised to pH 9 to 10 by addition of 7.5 μl of 0.2 M NaOH prior to addition of the quenching solution. Following protein precipitation and centrifugation, 150 μl of supernatants were dried down and reconstituted with 250 μl water. All samples were analyzed by LC-MS, and PAR values were used for quantification. Disappearance of MetX was monitored over the incubation time period. Three experiments were conducted with two replicates for each experiment, and data are reported as averages from three experiments.

HINT1 = molecular target: T4, HINT1 (Homo sapiens, UniProt P49773); assay: HINT1-catalyzed hydrolysis of RDV MetX and positive control; type: in vitro ADME
T4 construct: purchased Abcam (Cambridge, MA)

CatA = molecular target: T5, CatA (Homo sapiens, UniProt P10619); assay: CatA-catalyzed hydrolysis of RDV and control (substrate disappearance, LC-MS)
T5 sequence (P10619 29-326 limits assumed): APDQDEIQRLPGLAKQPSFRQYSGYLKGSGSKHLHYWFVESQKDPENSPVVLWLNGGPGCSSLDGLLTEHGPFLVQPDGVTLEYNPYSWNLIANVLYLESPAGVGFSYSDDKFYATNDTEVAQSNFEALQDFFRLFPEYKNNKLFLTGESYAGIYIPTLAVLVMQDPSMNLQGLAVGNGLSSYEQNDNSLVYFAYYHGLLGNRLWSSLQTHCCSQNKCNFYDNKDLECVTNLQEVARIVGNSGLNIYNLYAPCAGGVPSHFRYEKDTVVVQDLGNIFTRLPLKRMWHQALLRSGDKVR
T5 sequence (P10619 327-480 limits assumed): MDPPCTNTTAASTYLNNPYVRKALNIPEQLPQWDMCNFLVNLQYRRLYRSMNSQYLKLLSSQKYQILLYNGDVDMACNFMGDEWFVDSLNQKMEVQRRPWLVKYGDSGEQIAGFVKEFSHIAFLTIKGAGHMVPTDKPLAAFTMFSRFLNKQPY
Description: as §1
Following protein precipitation and centrifugation, 150 μl of supernatant was dried down and reconstituted with 250 μl water. […] Three experiments were conducted with two replicates in each experiment, and data are reported as averages from the three experiments.
as §3

[2] = 1 μM compound, 100 mM sodium acetate pH 4.5

T4 sequence (P49773 whole entry): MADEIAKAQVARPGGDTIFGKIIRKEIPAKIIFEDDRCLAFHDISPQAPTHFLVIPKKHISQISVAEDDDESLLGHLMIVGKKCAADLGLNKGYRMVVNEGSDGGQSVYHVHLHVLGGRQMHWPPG

CCOC(=O)C1=C[C@@H](OC(CC)CC)[C@H](NC(C)=O)[C@@H](N)C1 [Oseltamivir]
Activity for amidate ester cleavage, CES1c (CES1c): 1.5 ± 0.2 × 10^−2 nmol/min/mg
half-life at 1 μM (CES1c; human, CES1c Supersomes (protein-enriched subcellular fraction), read-out: t1/2, CES1c (converted)): 31 min
Activity for amidate ester cleavage, CES1b (CES1b): 2.3 ± 0.1 × 10^−2 nmol/min/mg
half-life at 1 μM (CES1b; human, CES1b Supersomes (protein-enriched subcellular fraction), read-out: t1/2, CES1b (converted)): 20 min

CCN(CC)CCOC(=O)c1ccc(N)cc1 [Procaine]
Activity for amidate ester cleavage, CES2 (CES2; 1 μM substrate): 4.4 ± 0.8 × 10^−3 nmol/min/mg
half-life at 1 μM (CES2; human, CES2 Supersomes (protein-enriched subcellular fraction), pH 7.4, 1 μM substrate, read-out: t1/2, CES2 (converted)): 110 min

C[C@H](N[P@@](=O)(O)OC[C@H]1O[C@@](C#N)(c2ccc3c(N)ncnn23)[C@H](O)[C@@H]1O)C(=O)O [RDV MetX]
Lysosomal hydrolysis at pH 4.5 [1, 2]: 0 ± 0 nmol/min
P-N bond cleavage under acidic pH ([1]; acidic pH mimicking intracellular lysosomal conditions): no RDV MetX hydrolysis product was detectable; also recorded: completely resistant to acid hydrolysis
half-life at 1 μM ([1]; buffer, pH 4.5): > 167 h
HINT1 hydrolysis (HINT1; 1 μM substrate, 250 nM HINT1, pH 7.2, 37°C): 32 ± 12 nmol/min/mg
half-life at 1 μM (HINT1; human, recombinant HINT1, 1 μM substrate, 250 nM HINT1, pH 7.2, 37°C, read-out: t1/2, HINT1 hydrolysis (converted)): 5.5 min
HINT1 metabolism rate relative to GS-6620 MetX (HINT1; times faster than known substrate GS-6620 MetX): 6 times

CC(C)OC(=O)[C@H](C)N[P@](=O)(CO[C@H](C)Cn1cnc2c(N)ncnc21)Oc1ccccc1 [TAF (GS-7340), tenofovir alafenamide fumarate]
Activity for amidate ester cleavage, CatA (CatA; 1 μM substrate, 5 nM CatA, pH 6.5, 37°C): 254 ± 154 nmol/min/mg
half-life at 1 μM (CatA; human, pH 6.5): 13 min

CC(Cn1cnc2c(N)ncnc21)OCP(=O)(O)NC(C)C(=O)O (stereo not shown) [TAF MetX]
Lysosomal hydrolysis at pH 4.5 [1, 2]: 1.2 ± 0.6 × 10^−3 nmol/min
t1/2, lysosomal hydrolysis at pH 4.5 [1, 2]: 16 ± 7 min
